US20190112316A1, “THIAZOLO[3,2-A] PYRIMIDINONE AND OTHER HETEROBICYCLIC PYRIMIDINONE COMPOUNDS FOR USE IN MEDICAL THERAPY” (priority 2015, published 2019)
In brackets after ≈: the same amount, converted by molar mass.

Tests used:
[1] = molecular target: T1, glucocerebrosidase (Gcase) (Homo sapiens, UniProt P04062); experiment: Glucocerebrosidase (Gcase) activation assay, 4-methylumbelliferyl-beta-D-glucopyranoside substrate, with saposin C; type: biochemical; conditions: for activation at 0.1 µM: read-out: Percent Gcase Activation 0.1 μM Test Compound; for activation at 1 µM: read-out: Percent Gcase Activation 1 μM Test Compound
T1 construct: micellar solution containing 10 nM GCase and 100 nM saposin C (Enzo ALX-201-262-C050)
T1 sequence (P04062 40-536): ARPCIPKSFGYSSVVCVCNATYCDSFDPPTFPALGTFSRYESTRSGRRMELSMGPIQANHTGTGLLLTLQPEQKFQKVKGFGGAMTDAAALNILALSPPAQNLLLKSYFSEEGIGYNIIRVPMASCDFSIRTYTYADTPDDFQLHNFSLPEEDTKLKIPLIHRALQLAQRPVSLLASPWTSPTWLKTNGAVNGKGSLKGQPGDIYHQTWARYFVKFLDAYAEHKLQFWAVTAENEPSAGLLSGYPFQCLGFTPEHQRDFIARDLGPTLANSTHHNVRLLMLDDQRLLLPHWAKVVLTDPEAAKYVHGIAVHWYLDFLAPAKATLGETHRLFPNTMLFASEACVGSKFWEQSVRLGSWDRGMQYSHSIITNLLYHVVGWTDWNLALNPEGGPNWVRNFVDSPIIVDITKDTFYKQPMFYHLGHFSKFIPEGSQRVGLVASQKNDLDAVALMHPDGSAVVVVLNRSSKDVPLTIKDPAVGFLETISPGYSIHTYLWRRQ
Experimental: A 484 μL aliquot of a 1.0 mg/mL solution of phosphatidylserine (PS) (Sigma P7769) in chloroform was evaporated under a stream of nitrogen for 1 hour. The lipid film was dissolved over 4 minutes of vigorous vortexing in 40 mL of 176 mM K2HPO4/50 mM citric acid (pH 4.7) containing 7.5 μL of triton X-100, resulting in a mixed micellar preparation with a composition of 0.32 mM triton and 0.37 mol % PS. 4-Methylumbelliferyl-beta-D-glucopyranoside (ACROS-337025000) was dissolved in the micellar solution to a final concentration of 2 mM for use as the reaction substrate.
Test compounds were diluted to the desired concentrations with dimethylsulfoxide (DMSO) from 10 mM stocks, and 0.41 μL of the DMSO compound mixture was added to 100 μL of micellar solution containing 10 nM GCase and 100 nM saposin C (Enzo ALX-201-262-C050). Pre-incubation was allowed to occur for 30 minutes at room temperature, after which the reaction was initiated by combining 25 μL of substrate solution with 25 μL of compound/GCase/saposin mixture. The reaction proceeded for 15 minutes at room temperature and was stopped by adding 150 μL of 1M glycine, pH 12.5. The endpoint of the reaction was monitored by measuring fluorescence intensity (excitation: 365 nm; emission: 440 nm) on a SpectraMax i3 instrument (Molecular Devices). Test compounds were screened at 1.0 and 0.1 μM final concentration, and subsequent 8-point dose response curves were obtained using 3-fold dilutions from a maximum final concentration of 5 μM.

[2] = Compound solubility in water; type: physicochemical

Compound | activation at 0.1 µM [1] [%] | activation at 1 µM [1] [%] | solubility [2] [µg/mL]
CCCCCO[C@H]1CC[C@H](NC(=O)c2cnc3n(c2=O)CCS3)CC1 | < 5 | 5 to 20 | 8.4 (≈ 23 µM)
CCc1ccc(NC(=O)c2cnc3scc(C)n3c2=O)cc1 | < 5 | > 20 | 1.1 (≈ 3.51 µM)
Cc1csc2ncc(C(=O)Nc3ccc(C(C)C)cc3)c(=O)n12 | 5 to 20 | > 20 | 0.5 (≈ 1.53 µM)
CCc1ccc(CNC(=O)c2cnc3sccn3c2=O)cc1 | < 5 | 5 to 20 | 17 (≈ 54.2 µM)
CCc1ccc(CCNC(=O)c2cnc3sccn3c2=O)cc1 | < 5 | 5 to 20 | 2.5 (≈ 7.64 µM)
CCC1CCC(NC(=O)c2cnc3sccn3c2=O)CC1 (stereo not drawn) | 5 to 20 | > 20 | 4.9 (≈ 16 µM)
O=C(NCC1COc2ccccc2O1)c1cnc2sccn2c1=O (stereo not drawn) | < 5 | < 5 | 22.6 (≈ 65.8 µM)
CC(C)c1ccc(NC(=O)c2cnc3sccn3c2=O)nc1 | < 5 | 5 to 20 | 2.7 (≈ 8.59 µM)
CC(C)c1ccc(NC(=O)c2cnc3sccn3c2=O)cn1 | < 5 | < 5 | 13.8 (≈ 43.9 µM)
C#Cc1ccc(NC(=O)c2cnc3sccn3c2=O)cc1 | 5 to 20 | > 20 | 3.4 (≈ 11.5 µM)
O=C(NC1Cc2ccccc2C1)c1cnc2sccn2c1=O | 5 to 20 | > 20 | 1.2 (≈ 3.85 µM)
CCc1ccc(NC(=O)c2cnc3ccccn3c2=O)cc1 | < 5 | 5 to 20 | 1 (≈ 3.41 µM)
CCC(C)c1ccc(NC(=O)c2cnc3ccccn3c2=O)cc1 (stereo not drawn) | < 5 | 5 to 20 | 0.3 (≈ 0.933 µM)
CCC(C)c1ccc(NC(=O)c2cnc3cccc(C)n3c2=O)cc1 (stereo not drawn) | 5 to 20 | > 20 | 1 (≈ 2.98 µM)
CCC(C)c1ccc(NC(=O)c2cnc3ccc(C)cn3c2=O)cc1 (stereo not drawn) | < 5 | 5 to 20 | 0.05 (≈ 0.149 µM)
CCC(C)c1ccc(NC(=O)c2cnc3c(C)cccn3c2=O)cc1 (stereo not drawn) | < 5 | 5 to 20 | 0.5 (≈ 1.49 µM)

Compound | activation at 0.1 µM [1] [%] | activation at 1 µM [1] [%] | solubility [2] [µg/mL]
Cc1cccc2ncc(C(=O)NC3CCC(C)CC3)c(=O)n12 (stereo not drawn) | < 5 | > 20 | 18.7 (≈ 62.5 µM)
Cc1cccc2ncc(C(=O)NC3CCCCCC3)c(=O)n12 | < 5 | > 20 | 9.3 (≈ 31.1 µM)
Cc1cccc2ncc(C(=O)Nc3ccc(-n4ccnc4)cc3)c(=O)n12 | < 5 | 5 to 20 | 1.2 (≈ 3.47 µM)
Cc1cccc2ncc(C(=O)NC3CCCc4ccccc43)c(=O)n12 (stereo not drawn) | 5 to 20 | > 20 | 13.9 (≈ 41.7 µM)
Cc1cccc2ncc(C(=O)NC3CCc4ccccc43)c(=O)n12 (stereo not drawn) | < 5 | > 20 | 6.8 (≈ 21.3 µM)
Cc1cccc2ncc(C(=O)Nc3ccc4c(c3)OCCO4)c(=O)n12 | < 5 | 5 to 20 | 0.7 (≈ 2.08 µM)
Cc1cccc2ncc(C(=O)NC3CCOCC3)c(=O)n12 | < 5 | 5 to 20 | 31 (≈ 108 µM)
CCN1CCN(c2ccc(NC(=O)c3cnc4cccc(C)n4c3=O)cc2)CC1 | < 5 | 5 to 20 | 33.3 (≈ 85.1 µM)
Cc1cccc2ncc(C(=O)Nc3ccc(N4CCCCC4)cc3)c(=O)n12 | < 5 | < 5 | 1.4 (≈ 3.86 µM)
Cc1cccc2ncc(C(=O)NC3CCC(c4ccccc4)CC3)c(=O)n12 (stereo not drawn) | 5 to 20 | > 20 | 3.5 (≈ 9.68 µM)
Cc1cccc2ncc(C(=O)Nc3ccc4c(c3)CN(C)C4)c(=O)n12 | < 5 | < 5 | 35.4 (≈ 106 µM)
Cc1cccc2ncc(C(=O)NC3CCc4ccccc4C3)c(=O)n12 (stereo not drawn) | < 5 | 5 to 20 | 4.3 (≈ 12.9 µM)
C#Cc1ccc(NC(=O)c2cnc3cccc(C)n3c2=O)cc1 | < 5 | 5 to 20 | 1.5 (≈ 4.95 µM)
CCCCc1ccc(NC(=O)c2cnc3cccc(C)n3c2=O)cc1 | 5 to 20 | > 20 | 0.05 (≈ 0.149 µM)
Cc1cccc2ncc(C(=O)Nc3ccc(C4CCCCC4)cc3)c(=O)n12 | < 5 | > 20 | 0.2 (≈ 0.553 µM)
CCCCC1CCC(NC(=O)c2cnc3cccc(C)n3c2=O)CC1 (stereo not drawn) | 5 to 20 | > 20 | 0.4 (≈ 1.17 µM)
